The test system of one data set is serum bile acids. Put plainly: Serum bile acids, ascending multiple oral doses of LUM001 in healthy adults. The class given is in vivo, human. The settings on record: 28 days. As to the method: This Phase 1 study was a randomized, double-blind, placebo-controlled study of ascending multiple oral doses of LUM001 in healthy, adult subjects. This study was conducted at a single center. There were 13 LUM001 dosing panels: 10, 20, 60, 100, and 20 mg every morning (qAM) (2) (i.e., the regimen was tested a second time in the study), 5 mg every evening (qPM), 0.5, 1, 2.5, 5, 2.5 (2), 5 (2), and 0.5 to 5 mg qAM dose titration. Most of the dosing panels included subjects treated with matching placebo. No subject participated in more than 1 dosing panel. Subjects were randomized into the study by dosing panel, and all subjects within a dosing panel received study medication at approximately the same time each day. Safety was reviewed for each panel before subsequent panels were initiated. A total of 167 subjects were treated for 28 days, 147 with LUM001 and 20 with placebo. […]
On Day 1 of the Treatment Period, subjects who qualified for enrollment were randomized in the order in which they were admitted to the research facility. […] The safety and tolerability of LUM001 were evaluated by physical examination, ascertainment of adverse signs and symptoms, and clinical laboratory studies. […]
SBA were analyzed as part of the routine clinical analysis of the serum samples collected at each time point.

Data set [1] is described as follows: Body weight of hamsters, LUM001 for 28 days. The class given is in vivo, golden Syrian hamsters. The conditions noted are these: n=10. How it is done:
Male golden Syrian hamsters (126-147 gm) were obtained from Charles Rivers Laboratories and were single housed in a constant temperature environment with alternating 12-hour light and dark cycles. Hamsters were fed Teklad 7001 rodent meal chow at libitum for two weeks before the experimental studies began and switched to Teklad 7001 rodent meal chow supplemented with 0.24% cholesterol on day one of the 28-day experiment. LUM001 was dissolved in an aqueous solution of 0.2% (w/v) Tween 80 and administered Q.D. by intragastric gavage between 9 a.m. and 10 a.m. each morning using a syringe fitted with a flexible feeding tube. Blood samples were collected after 14- and 28-day treatment periods by orbital sinus and cardiac puncture, respectively. Hamsters were anesthetized but not fasted prior to blood collections. Fecal samples were collected during a 48-hour period at the end of days 14 and 28 (i.e., days 13-14 and 27-28, respectively).

Data set [2] concerns Alkaline Phosphatase (ALP). The settings on record: twice daily oral gavage; Week 3.
Protocol: This study was conducted to determine the effects of two non-absorbed ASBTi compounds in the ZDF rat model after 3 weeks of treatment.
Animals were acclimatized for 5-7 days after arrival. […] The 2nd set of study was initiated after completion of the 1st. Test compound formulation prepared every other day and stored at 4° C. […] After 3rd week of treatment blood samples were collected by cardiac puncture from fasted animals for blood chemistry analysis: ALAT, ASAT, GGT, Alkaline Phosphatase and total Bile Acids. Tests were performed in contract clinical laboratory (Liver Profile SA320, Antech Diagnostics, Orange Country, Calif.).
Blood was collected by tail vein bleed weekly and after 3 weeks of treatment by cardiopuncture for serum tests. Data for each group is presented as the Mean Value±SEM. Statistically evaluation by t-test: *P<0.05, **P<0.01,***P<0.001 vs. vehicle group.

On to `CCCCC1(CCCC)CS(=O)(=O)c2ccc(N(C)C)cc2[C@@H](c2ccc(OCc3ccc(C[N+]45CCN(CC4)CC5)cc3)cc2)[C@H]1O` [LUM001], for which, in the data set on serum bile acids, the Serum bile acids result is reported as “significant reduction in serum bile acids”. Moreover, the “Body Weight (BW)” value in data set [1] (5 mg/kg/day) is recorded as 130 g; in data set [1] (15 mg/kg/day) it was 136 g; in data set [1] (50 mg/kg/day) it was 130 g.

In the case of `CCCC[C@]1(CC)CS(=O)(=O)c2ccc(N(C)C)cc2[C@@H](c2cccc(NC(=O)N[C@@H]3O[C@H](COS(=O)(=O)[O-])[C@@H](O)[C@H](OCc4ccccc4)[C@H]3O)c2)[C@H]1O.CCO.O.[K+]` [LUM002, potassium((2R,3R,4S,5R,6R)-4-benzyloxy-6-{3-[3-((3S,4R,5R)-3-butyl-7-dimethylamino-3-ethyl-4-hydroxy-1,1-dioxo-2,3,4,5-tetrahydro-1H-benzo[b]thiepin-5-yl)-phenyl]-ureido}-3,5-dihydroxy-tetrahydro-pyran-2-ylmethyl)sulphate ethanolate, hydrate], in data set [2], the “Plasma alkaline phosphatase (ALP)” value is listed as “significant reductions in ALP”.
